Where two headings read alike, the source gives them in different places.
What was measured:
CA IX [1] = conditions: cited from earlier work
tubulin = conditions: read-out: tubulin polymerization IC50, cited from earlier work
[2] = tested on: A549 (lung carcinoma) cells; experiment: MTT antiproliferative assay, A549; type: cell-based; conditions: Homo sapiens, read-out: IC50 A549
Protocol: (§1) . All cell lines were obtained from the Vacsera Cell Culture Library, Tissue Culture Unit, Cairo, Egypt, with ATCC certification. […] Check Appendix A for additional information.
(§2) . Cells were cultured in their respective recommended media supplemented with 10% fetal bovine serum and 1% penicillin-streptomycin and maintained at 37 °C in a humidified atmosphere containing 5% CO₂. Cell viability was assessed using the MTT assay, following the protocol provided with the In Vitro Toxicology Assay Kit, MTT Based (Sigma-Aldrich, TOX-1). Briefly, cells were seeded in 96-well plates at a density of 5 × 10³ cells/well and allowed to adhere overnight. […] Subsequently, 10 µL of reconstituted MTT solution (5 mg/mL in serum-free, phenol red-free medium) was added to each well and incubated for 3 h at 37 °C. The resulting formazan crystals were dissolved by adding 100 µL of the MTT Solubilization Solution, and the plates were gently shaken to ensure complete solubilization. Absorbance was recorded at 570 nm with a reference wavelength of 690 nm using a microplate reader. Cell viability was expressed as a percentage relative to untreated control cells. All experiments were conducted in triplicate, and IC₅₀ values were determined using linear regression analysis.

[3] = tested on: HT-29 (colon adenocarcinoma) cells; experiment: MTT antiproliferative assay, HT-29; type: cell-based; conditions: Homo sapiens, 48 h, HT-29 colorectal cancer cells
Protocol: (§3) All cell lines were obtained from the Vacsera Cell Culture Library, Tissue Culture Unit, Cairo, Egypt, with ATCC certification. The assay enabled the detection of membrane-compromised cells based on the fluorescence intensity of DNA binding. Check Appendix A for additional information.
as §2, with “Cells” for “. Cells”

[4] = tested on: 786-O (renal carcinoma) cells; experiment: MTT antiproliferative assay, 786-O; type: cell-based; conditions: Homo sapiens, read-out: IC50 786-O
Protocol: as §3
as §2, with “Cells” for “. Cells”

[5] = tested on: MCF-7 (breast adenocarcinoma) cells; experiment: MTT antiproliferative assay, MCF-7; type: cell-based; conditions: Homo sapiens, read-out: IC50 MCF-7
Protocol: as §1, §2

[6] = tested on: WI-38 normal lung fibroblast cells; experiment: MTT cytotoxicity assay, normal WI-38 fibroblasts; type: cell-based; conditions: Homo sapiens, 48 h, WI-38 normal fibroblasts
Protocol: as §3
as §2, with “Cells” for “. Cells”

p53 = p53 ELISA in HT-29 cells; type: cell-based, human
caspase-9 = experiment: Caspase-9 ELISA in HT-29 cells; type: cell-based, human
Source text: This assay employs a sandwich ELISA format, utilizing a specific capture antibody and an HRP-conjugated detection system, with absorbance measured at 450 nm. A detailed methodology is provided in Appendix A (Supplementary Material).
This solid-phase sandwich ELISA employs a monoclonal antibody pre-coated on a 96-well microplate to capture caspase-9 from samples. A rabbit polyclonal detection antibody specific to human caspase-9 is subsequently added, followed by an HRP-conjugated anti-rabbit IgG and TMB substrate for colorimetric detection. The intensity of the yellow product formed after stopping the reaction with phosphoric acid is proportional to the amount of caspase-9 present and is measured at 450 nm. […] Lysates were centrifuged at 1,000 × g for 15 minutes, and the clear supernatants were collected and either analyzed immediately or stored at –80 °C. […] Standard concentrations of 1.6, 3.1, 6.3, 12.5, 25, 50, and 100 ng/mL yielded OD values of 0.140, 0.167, 0.213, 0.239, 0.501, 0.799, and 1.639 respectively, with a blank reading of 0.042. Net OD values were calculated by subtracting the blank absorbance, and the standard curve was constructed accordingly. The concentration of caspase-9 in each sample was determined using linear regression analysis, and final values were adjusted by the dilution factor.

CA XII = CA XII (Homo sapiens, UniProt O43570); experiment: Carbonic anhydrase inhibitor screening kit (colorimetric), CA XII
CA IX [7] = target: CA IX (Homo sapiens, UniProt Q16790); experiment: Carbonic anhydrase inhibitor screening kit (colorimetric), CA IX
Bax = Bax ELISA in HT-29 cells; type: cell-based, human
Protocol: Changes in Bax levels were quantified in treated cell lysates to assess the apoptotic response. Comprehensive assay details are available in Appendix A (Supplementary Material).
This sandwich-based immunoassay utilizes a monoclonal antibody specific for human BAX-α to capture and quantify the protein in cell lysates. Cells were lysed using the provided Cell Lysis Buffer, freshly supplemented with phenylmethylsulfonyl fluoride (PMSF, 1 mM) and protease inhibitor cocktail (PIC, 0.5 µL/mL). Lysates were incubated on ice, vortexed, and centrifuged at 16,000 rpm for 15 minutes at 4 °C. The supernatants were collected and diluted with the kit's Assay Buffer. A standard curve was generated using BAX-α standards with concentrations of 62.5, 125, 250, 500, 1000, and 2000 ng/mL. The corresponding net absorbance values (after subtracting the average blank OD of 0.023) were 0.110, 0.192, 0.338, 0.781, 1.443, and 2.496, respectively. Absorbance was measured at 450 nm with a reference wavelength of 570–590 nm. BAX concentrations in the samples were calculated using linear regression analysis based on the standard curve obtained. The assay provided a sensitive and quantitative measure of BAX modulation in response to compound 7.

CA I = CA I (Homo sapiens, UniProt P00915); experiment: Carbonic anhydrase inhibitor screening kit (colorimetric), CA I
CA II = CA II (Homo sapiens, UniProt P00918); experiment: Carbonic anhydrase inhibitor screening kit (colorimetric), CA II
Bcl-2 = Bcl-2 ELISA in HT-29 cells; type: cell-based, human
Protocol: Absorbance was measured at 450 nm to determine changes in Bcl-2 expression in response to treatment. A full description of the assay protocol is included in Appendix A (Supplementary Material).
The assay is based on a sandwich ELISA format, where human Bcl-2 is captured by a monoclonal antibody coated on a microwell plate and detected using a biotin-conjugated anti-Bcl-2 antibody followed by Streptavidin-HRP and TMB substrate. Cells were lysed using the supplied Lysis Buffer at a concentration of 5 × 10⁶ cells/mL and incubated for 1 hour at room temperature with gentle shaking. Lysates were clarified by centrifugation at 1000 × g for 15 minutes, and the supernatants were collected for immediate use or stored at –80 °C. For the assay, 20 µL of sample was added to wells along with 80 µL of Sample Diluent, followed by 50 µL of diluted biotin-conjugate. After a 2-hour incubation at room temperature, plates were washed and incubated with diluted Streptavidin-HRP for 1 hour. […] Absorbance was measured at 450 nm with optional correction between 610–650 nm. […] The corresponding absorbance values ranged from approximately 0.121 to 2.461, with a background (blank) absorbance of 0.023. Net absorbance values were calculated by subtracting the blank from each standard, and the resulting data were used to construct a calibration curve. […]

caspase-3 = experiment: Active caspase-3 ELISA in HT-29 cells; type: cell-based, human
Source text: This sandwich ELISA detects caspase-3 cleaved at Asp175/Ser176, enabling sensitive colorimetric measurement at 450 nm. Additional procedural details are provided in Appendix A (Supplementary Material).
This assay is based on a solid-phase sandwich ELISA principle, where an anti-human caspase-3 monoclonal antibody is pre-coated onto a microplate. Cell lysates or standards are captured by this antibody, followed by the addition of a rabbit polyclonal detection antibody specific for active caspase-3 cleaved at Asp175/Ser176. Detection is then performed using HRP-conjugated anti-rabbit IgG and TMB substrate. Cell lysates were prepared in protease inhibitor-supplemented cell extraction buffer and clarified by centrifugation. Samples were diluted in Standard Diluent Buffer and added to the wells along with a standard curve of human active caspase-3. The standard concentrations included 39, 78, 156, 313, 625, 1250, and 2500 ng/mL, which yielded optical density (OD) readings ranging from 0.192 to 2.733. A blank reading of 0.018 was subtracted from each standard OD, and the resulting data were used to generate a standard curve. […] After color development, the reaction was stopped with acid, and absorbance was read at 450 nm. The concentration of active caspase-3 in treated samples was determined using linear regression analysis of the standard curve. […]

CA I, sequence (P00915 whole entry): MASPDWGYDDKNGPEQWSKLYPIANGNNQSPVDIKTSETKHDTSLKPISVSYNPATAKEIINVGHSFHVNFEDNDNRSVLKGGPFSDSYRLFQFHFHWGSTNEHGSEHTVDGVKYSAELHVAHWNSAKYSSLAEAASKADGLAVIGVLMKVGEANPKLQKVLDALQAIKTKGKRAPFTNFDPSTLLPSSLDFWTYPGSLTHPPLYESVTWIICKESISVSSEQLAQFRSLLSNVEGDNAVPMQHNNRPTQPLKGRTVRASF
CA XII, sequence (O43570 25-354): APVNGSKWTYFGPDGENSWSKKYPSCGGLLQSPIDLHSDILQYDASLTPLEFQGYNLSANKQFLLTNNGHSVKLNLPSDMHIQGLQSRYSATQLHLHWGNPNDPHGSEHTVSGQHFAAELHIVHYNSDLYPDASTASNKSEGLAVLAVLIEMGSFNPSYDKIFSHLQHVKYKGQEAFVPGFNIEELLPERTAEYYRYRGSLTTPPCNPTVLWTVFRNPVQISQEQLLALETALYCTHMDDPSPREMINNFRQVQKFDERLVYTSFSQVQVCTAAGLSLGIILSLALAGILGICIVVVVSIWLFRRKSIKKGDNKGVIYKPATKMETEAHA

NS(=O)(=O)c1ccc(NC(=O)Nc2cc3cc(Br)ccc3o2)cc1 [Compound II]
Ki (CA IX [1]; ref Shaldam et al., 2021): 0.0055 µM

COc1ccc2[nH]cc(/C=N/Nc3nc(-c4cccc(Br)c4)cs3)c2c1 [Compound VII]
IC50 (tubulin; ref Wang et al., 2024): 1.68 µM

COc1cc(/C=C/C(=O)c2nnn(-c3ccc(S(N)(=O)=O)cc3)c2C)cc(OC)c1OC [compound V]
Ki (CA IX [1]; ref Abdelhakeem et al., 2024): 0.03 µM

COc1ccc(/C=C\c2cc(OC)c(OC)c(OC)c2)cc1O [CA-4, combretastatin A-4, reference compound]
IC50 ([2]; MTT assay, 48 h, A549 lung cancer cells): 0.44 µM | IC50 [3]: 2.15 µM | IC50 ([4]; 786-0, MTT assay, 48 h, 786-O renal cancer cells): 3.27 µM | IC50 ([5]; MCF7, MTT assay, 48 h, MCF-7 breast cancer cells): 1.82 µM | IC50 [6]: 28.1 µM

COc1cc(-c2csc(NC(=O)CNc3ccc([N+](=O)[O-])cc3)n2)cc(OC)c1OC [compound VIII]
IC50 (tubulin; ref El-Abd et al., 2022): 2 µM

CCOc1ccc(-c2sc(N)nc2-c2ccc(OC)c3ccccc23)cc1 [compound VI]
IC50 (tubulin; ref Wang et al., 2021): 3.3 µM

Cc1[nH]c(=S)sc1C(=O)/C=C/c1ccc(S(N)(=O)=O)cc1 [Compound 7, (E)-4-(3-(4-methyl-2-thioxo-2,3-dihydrothiazol-5-yl)-3-oxoprop-1-en-1-yl)benzenesulfonamide]
P53 Conc (p53; ELISA, DMSO control 150.66 ± 3.33): 1,224.00 ± 6.67 pg/mL | P53 Fold change (p53; versus DMSO control): 8.12 | Caspase-9 Conc (caspase-9; ELISA, DMSO control 5.09 ± 0.26): 49.39 ± 1.13 ng/mL | Caspase-9 Fold change (caspase-9; versus DMSO control): 9.70 | IC50 ([2]; A549, 48 h): 6.82 µM | IC50 ([4]; 786-0, 48 h): 1.56 µM | IC50 (CA XII): 0.114 ± 0.012 µM | IC50 (CA IX [7]): 0.021 ± 0.004 µM | Bax Conc (Bax; ELISA, DMSO control 68.50 ± 1.67): 392.25 ± 14.58 pg/mL | Bax Fold change (Bax; versus DMSO control): 5.73 | IC50 (CA I): 1.9 ± 0.25 µM | IC50 ([5]; MCF7, 48 h): 3.63 µM | IC50 (CA II): 0.381 ± 0.045 µM | Bcl-2 Conc (Bcl-2; ELISA, DMSO control 19.25 ± 0.43): 6.212 ± 0.093 pg/mL | Bcl-2 Fold change (Bcl-2; versus DMSO control): 0.323 | Caspase 3 Conc (caspase-3; ELISA, DMSO control 57.64 ± 1.36): 511.27 ± 13.18 pg/mL | Caspase 3 Fold change (caspase-3; versus DMSO control): 8.87
